Test results: patent US11518735B2 (AE KYUNG INDUSTRIAL CO., LTD, priority 2017, dated 2022)
“Also recorded” adds a separate entry of the source.

Test: Thermal stability by HPLC analysis, samples heated in oven at 90° C.
Assay type: physicochemical
Conditions: for HPLC peak area: 90° C. oven; for change in peak area (degree of decomposition): after 24 hours versus initial peak area
Description: The thermal stability tests were conducted by heating the compound samples of Formulas 3 and 7 in an oven maintained at 90° C. and measuring the degree of decomposition of each sample.

Work on `CCCCCCCCCC/C=C/C(CC(=O)NCCCCCCCCCCCCCCCCCC)C(=O)O` (stereo not shown) [Formula 3] yielded an HPLC peak area (0 hour) of 22760548, an HPLC peak area (1 hour) of 22871539 and an HPLC peak area (24 hours) of 22896857. The “change in peak area (degree of decomposition)” value (90° C.) was “little change in the peak area ratio” and the “high-temperature stability compared with Formula 7” value (HPLC, 90° C.) was “better high-temperature stability; also recorded: improved stability”.

`CCCCCCCC/C=C/CCCCCCCCNC(=O)CC(/C=C/CCCCCCCCCCCCCCCC)C(=O)O` (stereo not shown) [Formula 7, reference compound] showed an HPLC peak area (0 hour) of 21694395, an HPLC peak area (3 hours) of 10982003 and an HPLC peak area (6 hours) of 11400622. The HPLC peak area (24 hours) was 7124834 and the “change in peak area (degree of decomposition)” value (90° C.) was “nearly one third of the initial peak area”.
